According to US6821980B1, “Substituted 5-benzyl-2,4-diaminopyrimidines” (Basilea Pharmaceutica AG, priority 1999, dated 2004):
In brackets after ≈: the same amount, converted by molar mass. Like-named read-outs stand apart in the source and are kept apart here.

What was measured:
[1] = test system: Staphylococcus aureus 101; test: MIC against Staphylococcus aureus 101; type: cell-based; conditions: Staphylococcus aureus 101, MRSA- and trimethoprim-resistant, clinical isolate; for MIC: read-out: MIC Sa101
[2] = molecular target: T1, purified DHFR of strain Sp1/1 of Streptococcus pneumoniae (Streptococcus pneumoniae serotype 4, UniProt Q54801); type: biochemical; conditions: IC50 against purified DHFR of strain Sp1/1
T1 sequence (Q54801 1-168 I100L): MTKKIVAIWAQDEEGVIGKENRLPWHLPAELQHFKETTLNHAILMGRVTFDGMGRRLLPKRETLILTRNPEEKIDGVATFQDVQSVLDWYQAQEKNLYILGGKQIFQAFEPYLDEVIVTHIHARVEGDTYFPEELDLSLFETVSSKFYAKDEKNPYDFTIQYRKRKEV

[3] = test system: Streptococcus pneumoniae 1/1; test: MIC against Streptococcus pneumoniae 1/1; type: cell-based
[4] = molecular target: purified DHFR of strain 157/4696 of Staphylococcus aureus (Staphylococcus aureus, UniProt P13955); test: biochemical
[5] = Table 2, Streptococcus pneumoniae 1/1, trimethoprim- and penicillin-resistant, serotype 6, clinical isolate, read-out: MIC Sp1/1
[6] = Table 1, Streptococcus pneumoniae 1/1, trimethoprim- and penicillin-resistant, serotype 6, clinical isolate, read-out: MIC Sp1/1
[7] = Table 2, Streptococcus pneumoniae 1/1, trimethoprim- and penicillin-resistant, serotype 6, clinical isolate
[8] = Table 2, IC50 against purified DHFR of strain 157/4696 (highly trimethoprim-resistant; clinical isolate), read-out: DHFR Sa1

purified DHFR of strain 157/4696 of Staphylococcus aureus, sequence (P13955 whole entry): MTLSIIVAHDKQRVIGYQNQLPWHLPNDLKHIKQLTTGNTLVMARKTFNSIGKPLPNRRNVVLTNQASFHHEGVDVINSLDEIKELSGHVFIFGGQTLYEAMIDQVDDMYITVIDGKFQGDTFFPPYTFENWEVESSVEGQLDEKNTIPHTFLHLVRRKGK

Molecule	MIC ([1]; Table 2) [µg/mL]	IC50 ([2]; Table 2) [nM]	MIC [3, 5] [µg/mL]	IC50 [4] [nM]	MIC ([3]; Streptococcus pneumoniae, 1/1, read-out: MIC Sp1/1) [µg/mL]	MIC ([1]; Table 1) [µg/mL]	IC50 ([2]; Table 1) [nM]	MIC [3, 6] [µg/mL]	MIC Sa101 ([1]; Table 2) [µg/mL]	MIC Sp1/1 [3, 7] [µg/mL]	IC50 [4, 8] [nM]
C=C(C)COc1cc(Cc2cnc(N)nc2N)cc(OCC)c1-c1ccc2c(c1)OCO2 [Example 10-f, 5-[4-Benzo[1.3]dioxol-5-yl-3-ethoxy-5-(2-methyl-allyloxy)-benzyl]-pyrimidine-2,4-diamine]	8 (≈ 18.4 µM)	85	8 (≈ 18.4 µM)	1800							
CCOc1cc(Cc2cnc(N)nc2N)cc(OCC(C)(C)C=CC#N)c1-c1cccc(N)c1 [Example 07-f, (E)-5-[3′-Amino-4-(2,4-diamino-pyrimidin-5-ylmeth)-6-ethoxy-biphenyl-2-yloxy]-4,4-dimethyl-pent-2-ene-nitrile]	8 (≈ 17.4 µM)	55		750	2 (≈ 4.36 µM)						
CCOc1cc(Cc2cnc(N)nc2N)cc(OCCC2CCOCC2)c1-c1cccc(N)c1 [Example 07-j, 5-{3′-Amino-2-ethoxy-6-[2-(tetrahydro-pyran-4-yl)-ethoxy]-biphenyl-4-ylmethyl}-pyrimidine-2,4-diamine]	8 (≈ 17.3 µM)	29	1 (≈ 2.16 µM)	1300							
CCOc1cc(Cc2cnc(N)nc2N)cc(OCC)c1-c1ccc(OC)c(C)c1 [Example 02-n, 5-(2,6-Diethoxy-4′-methoxy-3′-metyl-biphenyl-4-ylmethyl)-pyrimidine-2,4-diamine]	8 (≈ 19.6 µM)	110	4 (≈ 9.79 µM)	1400							
CCOc1cc(Cc2cnc(N)nc2N)cc(OCC)c1-c1ccc2cc[nH]c2c1 [Example 02-e, 5-[3,5-Diethoxy-4-(1H-indol-6-yl)-benzl]-pyrimidine-2,4-diamine]	4 (≈ 9.91 µM)	22	2 (≈ 4.96 µM)	1000							
CCOc1cc(Cc2cnc(N)nc2N)cc(OS(=O)(=O)N(C)CC)c1-c1cc(N)cc(F)c1 [Example 29-c, N-Ethyl-N-methyl-sulphamic acid 3′-amino-4-(2,4-diamino-pyrimidin-5-ylmethyl)-6-ethoxy-5′-fluoro-biphenyl-2-yl ester]	2 (≈ 4.08 µM)	5.2	2 (≈ 4.08 µM)	170							
CCOc1cc(Cc2cnc(N)nc2N)cc(OS(=O)(=O)CC(C)(C)C)c1-c1ccc(N)c(F)c1 [Example 37-a, 2,2-Dimethyl-propane-1-sulphonic acid 4′-amino-4-(2,4-diamino-pyrimidin-5-ylmethyl)-6-ethoxy-3′-fluoro-biphenyl-2-yl ester]	4 (≈ 7.94 µM)	4.5	0.25 (≈ 0.496 µM)	550							
CCOc1cc(Cc2cnc(N)nc2N)cc(OS(=O)(=O)N(C)C2CC2)c1-c1ccc(N)cc1 [Example 22e, N-Cyclopropyl-N-methyl-sulphamic acid 4′-amino-4-(2,4-diamino-pyrimidin-5-ylmethyl)-6-ethoxy-biphenyl-2-yl ester]				150		2 (≈ 4.13 µM)	13	1 (≈ 2.06 µM)			
CCOc1cc(Cc2cnc(N)nc2N)cc(OS(=O)(=O)C(C)C)c1-c1ccc(CN2CCOCC2)c(N)c1 [Example 33-d, Propane-2-sulphonic acid 3′-amino-4-(2,4-diamino-pyrimidin-5-ylmethyl)-6-ethoxy-4′-morpholinemethyl-4-ylmethyl-biphenyl-2-yl ester]		9.1							2 (≈ 3.59 µM)	2 (≈ 3.59 µM)	39
CCOc1cc(Cc2cnc(N)nc2N)cc(OS(=O)(=O)N(C)C)c1-c1cccc(N)c1 [Example 19-a, Dimethyl-sulphamic acid 3′-amino-4-(2,4-diamino-pyrimidin-5-ylmethyl)-6-ethoxy-biphenyl-2-yl ester]	1 (≈ 2.18 µM)	6.2	1 (≈ 2.18 µM)	85							
CCOc1cc(Cc2cnc(N)nc2N)cc(OS(=O)(=O)c2ccc(OC)c(F)c2)c1-c1ccc(O)cc1 [Example 15-j, 3-Fluoro-4-methoxy-benzenesulphonic acid 4-(2,4-diamino-pyrimidin-5-ylmethyl)-6-ethoxy-4′-hydroxy-biphenyl-2-yl ester]	8 (≈ 14.8 µM)	1.7	1 (≈ 1.85 µM)	550							
CCOc1cc(Cc2cnc(N)nc2N)cc(OC2CCC2)c1-c1cccc(N)c1 [Example 07-e, 5-(3′-Amino-6-qdobutoxy-2-ethoxy-biphenyl-4-ylmethyl)-pyrimidine-2,4-diamine]	4 (≈ 9.86 µM)	28	1 (≈ 2.47 µM)	640							
CCOc1cc(Cc2cnc(N)nc2N)cc(OCCC2CCCCO2)c1-c1ccc(O)cc1 (racemic) [Example 08-t, (RS)-4′-(2,4-Diamino-pyrimidin-5-ylmethyl)-6′-ethoxy-2′-[2-(tetrahydro-pyran-2-yl)-ethoxy]-biphenyl-4-ol]	8 (≈ 17.2 µM)	25	2 (≈ 4.31 µM)	2400							
CCOc1cc(Cc2cnc(N)nc2N)cc(OS(=O)(=O)CC(C)(C)C)c1-c1ccc(NCCO)cc1 [Example 37-d, 2,2-Dimethyl-propane-1-sulphonic acid 4-(2,4-diamino-pyrimidin-5-ylmethyl)-6-ethoxy-4′-(2-hydroxy-ethylamino)-biphenyl-2-yl ester]	8 (≈ 15.1 µM)	1.5	0.25 (≈ 0.472 µM)	290							
5-[4′-Amino-2-[(2-tetrahydropyran-4-yl)-ethoxy]-6-ethoxy-4′-methyl-biphenyl-4-ylmethyl]-pyrimidine-2,4-diamine [Example 11-b]		9.8							8	1	900
CCOc1cc(Cc2cnc(N)nc2N)cc(OS(=O)(=O)CC(C)(C)OC)c1-c1ccc(CN2CCOCC2)c(N)c1 [Example 39-d, (2-Methoxy-2-methyl-propane)-1-sulphonic acid 3′-amino-4-(2,4-diamino-pyrimidin-5-ylmethyl)-6-ethoxy-4′-morpholinemethyl-biphenyl-2-yl ester]		2.6							8 (≈ 13.3 µM)	2 (≈ 3.33 µM)	410
CCCS(=O)(=O)Oc1cc(Cc2cnc(N)nc2N)cc(OCC)c1-c1ccc(OC)c(N)c1 [Example 32-d, Propane-1-sulphonic acid 3′-amino-4-(2,4-diamino-pyrimidin-5-ylmethyl)-6-ethoxy-4′-methoxy-4-ylmethyl-biphenyl-2-yl ester]		5.9							2 (≈ 4.1 µM)	1 (≈ 2.05 µM)	140
CCOc1cc(Cc2cnc(N)nc2N)cc(OS(=O)(=O)C(C)C)c1-c1cccc(N)c1 [Example 14c, Propane-2-sulphonic acid 3′-amino-4-(2,4-diamino-pyrimidin-5-ylmethyl)-6-ethoxy-biphenyl-2-yl ester]				61		1 (≈ 2.19 µM)	20	1 (≈ 2.19 µM)			
CCOc1cc(Cc2cnc(N)nc2N)cc(OCC2CC2)c1-c1ccc(OC)c(N)c1 [Example 12-, 5-(3′-Amino-2-cyclopropylmethoxy-6-ethoxy-4′-methoxy-biphenyl-4-ylmethl)-pyrimidine-2,4-diamine]	8 (≈ 18.4 µM)	14	2 (≈ 4.59 µM)	1800							
CCOc1cc(Cc2cnc(N)nc2N)cc(OCC)c1-c1cccs1 [Example 02-m, 5-(3,5-Diethoxy-4-thiophen-2-yl-benzyl)-pyrimidine-2,4-diamine]	8 (≈ 21.6 µM)	58	4 (≈ 10.8 µM)	700							
CCOc1cc(Cc2cnc(N)nc2N)cc(OS(=O)(=O)N(C)C(C)C)c1-c1ccc(O)cc1 [Example 20-e, N-Isopropyl-N-methyl-sulphamic acid 4-(2,4-diamino-pvrimidin-5-ylmethyl)-6-ethoxy-4′-hydroxy-biphenyl-2-yl ester]	2 (≈ 4.1 µM)	14	2 (≈ 4.1 µM)	160							
CCOc1cc(Cc2cnc(N)nc2N)cc(OCC2(C#N)CC2)c1-c1ccc(O)cc1 [Example 08-f, 1-[4-(2,4-Diamino-pyrimidin-5-ylmethyl)-6-ethoxy-4′-hydroxy-biphenyl-2-yloxymethyl]-cyclopropanecarbonitrile]	8 (≈ 18.5 µM)	49	4 (≈ 9.27 µM)	950							
CCOc1cc(Cc2cnc(N)nc2N)cc(OCC)c1-c1ccc(SC)nc1 [Example 03-e, 5-[3,5-Diethoxy-4-(6-methylsulphanyl-pyridin-3-yl)-benzyl]-pyrimidine-2,4-diamine]	8 (≈ 19.4 µM)	80	4 (≈ 9.72 µM)	2100							
CCOc1cc(Cc2cnc(N)nc2N)cc(OCC)c1-c1cccnc1 [Example 02-p, 5-(3,5-Diethoxy-4-pyridin-3-yl-benzyl)-pyrimidine-2,4-diamine]	8 (≈ 21.9 µM)	100	4 (≈ 10.9 µM)	2200							
CCOc1cc(Cc2cnc(N)nc2N)cc(OCC(C)C)c1-c1ccc(OC)cc1 [Example 09-g, 5-(2-Ethoxy-6-isobutox-4′-methoxy-biphenyl-4-ylmethyl)-pyrimidine-2,4-diamine]	4 (≈ 9.47 µM)	50	4 (≈ 9.47 µM)	1600							
